Target: T1, long form of human GPR120 (Homo sapiens, UniProt Q5NUL3)
T1 construct: host or cells: PathHunter CHO-K1 GPR120 β-Arrestin Cell Line
Assay: Human GPR120 DiscoveRx PathHunter Beta-Arrestin assay, Procedure β-arrestin A
Type: cell-based
Outline: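 PathHunter CHO-K1 cells expressing long-form human GPR120 (3000/well) were seeded overnight. They were then preincubated 60 min in HBSS with 20 mM HEPES and 0.1% BSA, pH 7.4, and exposed to compound for 90 min at 37 °C. β-Arrestin recruitment was read as β-gal complementation luminescence. EC50 came from % activity versus positive control, Hill slope fixed at 1.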

T1 sequence (Q5NUL3 1-377 isoform Q5NUL3-1): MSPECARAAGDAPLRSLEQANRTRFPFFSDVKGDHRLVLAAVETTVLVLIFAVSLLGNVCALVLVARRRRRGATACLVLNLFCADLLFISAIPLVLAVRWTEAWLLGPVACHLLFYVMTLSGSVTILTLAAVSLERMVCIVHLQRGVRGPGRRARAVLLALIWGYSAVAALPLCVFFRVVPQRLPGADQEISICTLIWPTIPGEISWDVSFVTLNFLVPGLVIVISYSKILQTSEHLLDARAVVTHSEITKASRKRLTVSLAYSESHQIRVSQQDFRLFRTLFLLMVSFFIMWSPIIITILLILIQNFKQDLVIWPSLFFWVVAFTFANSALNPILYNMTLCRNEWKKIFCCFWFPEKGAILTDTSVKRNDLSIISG
T1 sequence (P32121 whole entry partner): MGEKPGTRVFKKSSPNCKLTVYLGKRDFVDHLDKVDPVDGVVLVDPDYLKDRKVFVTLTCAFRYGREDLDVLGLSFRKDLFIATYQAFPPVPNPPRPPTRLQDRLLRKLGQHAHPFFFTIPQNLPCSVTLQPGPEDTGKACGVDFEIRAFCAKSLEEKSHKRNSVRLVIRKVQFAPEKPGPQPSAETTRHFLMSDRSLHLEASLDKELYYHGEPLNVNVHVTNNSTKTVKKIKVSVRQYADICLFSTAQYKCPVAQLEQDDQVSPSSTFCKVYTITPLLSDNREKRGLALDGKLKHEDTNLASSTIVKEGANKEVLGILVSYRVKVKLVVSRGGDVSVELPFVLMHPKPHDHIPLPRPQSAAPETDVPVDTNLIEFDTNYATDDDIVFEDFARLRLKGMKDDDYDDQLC

SMILES: Cc1ccc(C2=C(COc3ccc(CCC(=O)O)c(C)c3C)CCC2)cc1F [Compound 80, 3-(4-((2-(3-fluoro-4-methylphenyl)cyclopent-1-en-1-yl)methoxy)-2,3-dimethylphenyl)Propanoic Acid]
- EC50: 73 nM

SMILES: Cc1c(CCC(=O)O)ccc(OCC2=C(c3ccc(Cl)cc3)CC(F)(F)C2)c1C [Compound 137, 3-[4-[[2-(4-chlorophenyl)-4,4-difluoro-cyclopenten-1-yl]methoxy]-2,3-dimethyl-phenyl]Propanoic Acid]
- EC50: 43 nM

SMILES: Cc1c(CCC(=O)O)ccc(OCC2=C(c3ccc(Cl)cc3)CCC(F)(F)C2)c1C [Compound 468, 3-[4-[[2-(4-chlorophenyl)-5,5-difluoro-cyclohexen-1-yl]methoxy]-2,3-dimethyl-phenyl]Propanoic Acid]
- EC50: 168 nM

SMILES: Cc1c(CCC(=O)O)ccc(OCC2=C(c3ccc(Cl)cc3)CCCC2)c1C [Compound 474, 3-[4-[[2-(4-chlorophenyl)cyclohexen-1-yl]methoxy]-2,3-dimethyl-phenyl]Propanoic Acid]
- EC50: 354 nM

Reference: patent US11230526B1, “Cylcoalkenyl derivatives useful as agonists of the GPR120 and/or GPR40 receptors” (Janssen Pharmaceutica NV, priority 2018, dated 2022)
